Experimental data from US8017654B2, “Combination cancer therapy with bis(thiohydrazide) amide compounds” (priority 2005, dated 2011).

What was measured:
[1] = Phase I trial, pharmacokinetics in plasma by LC/MS during cycle 1
Protocol: Pharmacokinetic (PK) studies were performed during cycle 1 using liquid chromatography/mass spectrometry (LC/MS) to measure both compounds in plasma. Heat shock protein 70 (Hsp70) was measured in plasma before and after treatment.

[2] = co-administered with Compound (1) 44-525 mg/m2

Row | serious effects specifically attributable to Compound (1) (35 patients, 8 dose levels, with paclitaxel) | PK linearity ([1]; Compound (1) 44-525 mg/m2, unaffected by paclitaxel dose) | Compound | Paclitaxel dose limiting toxicities (in vivo) | Paclitaxel clearance, trend with Compound (1) dose [1, 2] | Paclitaxel terminal phase half-life, effect of Compound (1) dose [1, 2]
1 | No serious effects | linear PK | CN(NC(=O)CC(=O)NN(C)C(=S)c1ccccc1)C(=S)c1ccccc1 [Compound (1)] | – | – | –
2 | – | – | CC(=O)O[C@H]1C(=O)[C@@]2(C)[C@H]([C@H](OC(=O)c3ccccc3)[C@]3(O)C[C@H](OC(=O)[C@H](O)[C@@H](NC(=O)c4ccccc4)c4ccccc4)C(C)=C1C3(C)C)[C@]1(OC(C)=O)CO[C@@H]1C[C@@H]2O [Paclitaxel, paclitaxel] | occurred in a single patient in each of the top three dose levels | significant trend toward decreasing clearance | without affecting the terminal phase half-life
